Among the data in ChEMBL document CHEMBL5696442, “Discovery of type II inhibitors of TGFβ-activated kinase 1 (TAK1) and mitogen-activated protein kinase kinase kinase kinase 2 (MAP4K2)” (J Med Chem, 2015) are inhibition values, retold here.

Test [1] can be described thus: Inhibition of KHS1 Lys2 labeling site harbouring DIKGANILLTDHGDVK in human Huh-7 cell lysate at 1 uM by KiNativ Profiling analysis relative to control. The settings on record: condition cancer.
In test [2] the target is Cyclin-dependent kinase 1 (Homo sapiens) (UniProt P06493). In words: Inhibition of CDC2 Lys1 labeling site in human Huh-7 cell lysate at 1 uM by KiNativ Profiling analysis relative to control. In kind it is subcellular.
Cyclin-dependent kinase 1 (Homo sapiens), sequence (P06493 whole entry, looked up): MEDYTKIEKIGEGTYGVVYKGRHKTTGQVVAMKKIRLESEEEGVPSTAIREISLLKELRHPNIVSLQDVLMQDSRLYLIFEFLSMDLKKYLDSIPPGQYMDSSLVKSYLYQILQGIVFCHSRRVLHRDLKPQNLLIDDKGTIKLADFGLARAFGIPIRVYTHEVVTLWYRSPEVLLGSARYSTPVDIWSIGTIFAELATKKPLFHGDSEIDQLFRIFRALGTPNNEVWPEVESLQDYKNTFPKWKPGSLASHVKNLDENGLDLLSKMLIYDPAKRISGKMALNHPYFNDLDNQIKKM
For test [3], the target named is T1, Inhibitor of nuclear factor kappa-B kinase subunit epsilon (Homo sapiens) (UniProt Q14164).
T1 sequence (whole entry): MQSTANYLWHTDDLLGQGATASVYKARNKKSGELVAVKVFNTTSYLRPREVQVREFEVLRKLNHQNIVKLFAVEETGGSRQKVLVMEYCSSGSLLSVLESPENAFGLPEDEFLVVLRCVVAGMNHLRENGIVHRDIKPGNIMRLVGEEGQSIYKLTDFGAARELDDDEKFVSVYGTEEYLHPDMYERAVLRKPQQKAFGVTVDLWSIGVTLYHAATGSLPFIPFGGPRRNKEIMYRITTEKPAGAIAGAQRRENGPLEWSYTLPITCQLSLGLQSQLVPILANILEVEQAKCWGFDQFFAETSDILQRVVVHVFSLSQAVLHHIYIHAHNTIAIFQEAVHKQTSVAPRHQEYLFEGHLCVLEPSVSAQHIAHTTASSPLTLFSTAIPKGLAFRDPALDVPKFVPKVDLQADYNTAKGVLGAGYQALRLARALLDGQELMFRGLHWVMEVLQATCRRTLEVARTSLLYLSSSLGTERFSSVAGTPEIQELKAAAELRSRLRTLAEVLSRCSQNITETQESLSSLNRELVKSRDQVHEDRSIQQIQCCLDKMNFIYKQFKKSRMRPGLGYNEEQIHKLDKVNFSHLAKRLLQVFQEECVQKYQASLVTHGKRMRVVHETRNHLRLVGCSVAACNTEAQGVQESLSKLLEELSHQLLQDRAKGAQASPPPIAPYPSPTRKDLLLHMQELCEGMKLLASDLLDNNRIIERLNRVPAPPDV
In words: Inhibition of IKKe Lys1 labeling site in human A-375 cells at 5 uM by KiNativ Profiling analysis relative to control. In kind it is cell-based.

For test [4], the system named is Epidermal growth factor receptor (Homo sapiens), P00533 [G719C]. In words: Inhibition of EGFR G719C mutant (unknown origin) at 10 uM by Ambit Kinomescan binding assay relative to control.
Epidermal growth factor receptor (Homo sapiens), P00533 [G719C], sequence (P00533 whole entry G719C): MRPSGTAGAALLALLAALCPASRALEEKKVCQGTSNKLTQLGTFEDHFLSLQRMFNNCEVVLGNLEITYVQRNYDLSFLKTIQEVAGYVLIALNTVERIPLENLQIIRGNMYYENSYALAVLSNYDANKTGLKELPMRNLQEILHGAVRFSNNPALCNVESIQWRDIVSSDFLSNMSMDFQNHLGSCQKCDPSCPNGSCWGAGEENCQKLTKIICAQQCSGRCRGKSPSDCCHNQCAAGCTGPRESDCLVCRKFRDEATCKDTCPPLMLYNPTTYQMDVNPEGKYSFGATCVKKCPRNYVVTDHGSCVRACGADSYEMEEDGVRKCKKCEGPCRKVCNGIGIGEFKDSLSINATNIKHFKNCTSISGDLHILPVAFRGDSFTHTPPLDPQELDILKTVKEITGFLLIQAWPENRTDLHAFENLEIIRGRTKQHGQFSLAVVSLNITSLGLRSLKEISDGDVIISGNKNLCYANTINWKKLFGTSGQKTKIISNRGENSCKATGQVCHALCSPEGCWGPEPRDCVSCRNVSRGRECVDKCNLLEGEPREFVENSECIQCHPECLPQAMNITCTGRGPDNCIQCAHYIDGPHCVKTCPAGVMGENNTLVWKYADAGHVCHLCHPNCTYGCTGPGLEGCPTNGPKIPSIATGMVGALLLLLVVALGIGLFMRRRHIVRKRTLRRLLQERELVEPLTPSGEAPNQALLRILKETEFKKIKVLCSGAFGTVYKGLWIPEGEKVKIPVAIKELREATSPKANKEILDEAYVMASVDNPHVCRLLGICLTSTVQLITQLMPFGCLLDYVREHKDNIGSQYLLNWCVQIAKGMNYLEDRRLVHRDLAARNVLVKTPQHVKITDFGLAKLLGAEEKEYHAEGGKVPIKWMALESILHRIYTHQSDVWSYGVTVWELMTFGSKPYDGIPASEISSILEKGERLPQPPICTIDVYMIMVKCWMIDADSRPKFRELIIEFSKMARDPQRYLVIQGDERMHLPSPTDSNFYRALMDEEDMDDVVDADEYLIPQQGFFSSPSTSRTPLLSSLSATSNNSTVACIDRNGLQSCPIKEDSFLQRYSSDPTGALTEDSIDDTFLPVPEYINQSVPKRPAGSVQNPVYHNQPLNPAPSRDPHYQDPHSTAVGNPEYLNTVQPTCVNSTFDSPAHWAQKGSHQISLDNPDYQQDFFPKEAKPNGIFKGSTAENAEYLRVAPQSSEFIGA
Test [5] concerns the target DNA-PK/Ku70/Ku85 (Homo sapiens) (UniProt P78527+P12956+P13010). In words: Inhibition of DNAPK ATP labeling site harbouring KGGSWIQEINVAEKNWYPR in human A-375 cells at 0.5 uM by KiNativ Profiling analysis relative to control. Type of test: cell-based.
The target of test [6] is T2, Serine/threonine-protein kinase LATS1 (Homo sapiens) (UniProt O95835).
T2 sequence (whole entry): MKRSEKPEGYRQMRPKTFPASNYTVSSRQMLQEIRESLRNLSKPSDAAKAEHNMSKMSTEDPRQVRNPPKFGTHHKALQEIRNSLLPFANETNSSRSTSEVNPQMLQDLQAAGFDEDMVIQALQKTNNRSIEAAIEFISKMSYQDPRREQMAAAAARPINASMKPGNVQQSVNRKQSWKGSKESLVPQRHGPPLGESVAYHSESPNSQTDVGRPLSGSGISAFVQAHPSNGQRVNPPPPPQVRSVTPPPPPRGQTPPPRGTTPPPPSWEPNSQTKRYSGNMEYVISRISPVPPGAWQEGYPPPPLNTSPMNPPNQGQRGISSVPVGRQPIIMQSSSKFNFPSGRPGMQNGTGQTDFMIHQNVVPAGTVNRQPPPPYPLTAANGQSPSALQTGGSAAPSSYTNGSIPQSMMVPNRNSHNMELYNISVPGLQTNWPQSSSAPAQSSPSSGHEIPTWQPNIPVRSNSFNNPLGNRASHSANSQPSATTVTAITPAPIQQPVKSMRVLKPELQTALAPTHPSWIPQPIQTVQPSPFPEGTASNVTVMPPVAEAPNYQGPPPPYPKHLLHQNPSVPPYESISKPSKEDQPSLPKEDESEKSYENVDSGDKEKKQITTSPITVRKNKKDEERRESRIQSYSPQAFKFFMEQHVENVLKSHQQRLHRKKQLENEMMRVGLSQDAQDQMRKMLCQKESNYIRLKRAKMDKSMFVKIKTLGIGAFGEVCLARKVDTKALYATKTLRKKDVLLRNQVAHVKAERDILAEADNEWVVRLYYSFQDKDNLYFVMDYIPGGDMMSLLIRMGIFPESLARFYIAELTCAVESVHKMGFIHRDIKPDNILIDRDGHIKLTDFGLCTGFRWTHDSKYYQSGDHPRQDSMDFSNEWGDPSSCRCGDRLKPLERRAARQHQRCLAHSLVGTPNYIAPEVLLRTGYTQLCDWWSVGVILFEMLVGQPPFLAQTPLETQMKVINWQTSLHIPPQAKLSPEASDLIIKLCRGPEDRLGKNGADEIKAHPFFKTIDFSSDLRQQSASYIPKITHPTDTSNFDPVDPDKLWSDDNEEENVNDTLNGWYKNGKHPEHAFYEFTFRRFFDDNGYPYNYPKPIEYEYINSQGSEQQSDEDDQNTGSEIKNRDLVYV
In words: Inhibition of LATS1 Lys2 labeling site in human A-375 cells at 0.5 uM by KiNativ Profiling analysis relative to control. In kind it is cell-based.

The target of test [7] is Serine/threonine-protein kinase MARK2 (Homo sapiens) (UniProt Q7KZI7). Nature of the test: Inhibition of MARK2 (unknown origin) at 10 uM by Ambit Kinomescan binding assay.
Serine/threonine-protein kinase MARK2 (Homo sapiens), sequence (Q7KZI7 whole entry): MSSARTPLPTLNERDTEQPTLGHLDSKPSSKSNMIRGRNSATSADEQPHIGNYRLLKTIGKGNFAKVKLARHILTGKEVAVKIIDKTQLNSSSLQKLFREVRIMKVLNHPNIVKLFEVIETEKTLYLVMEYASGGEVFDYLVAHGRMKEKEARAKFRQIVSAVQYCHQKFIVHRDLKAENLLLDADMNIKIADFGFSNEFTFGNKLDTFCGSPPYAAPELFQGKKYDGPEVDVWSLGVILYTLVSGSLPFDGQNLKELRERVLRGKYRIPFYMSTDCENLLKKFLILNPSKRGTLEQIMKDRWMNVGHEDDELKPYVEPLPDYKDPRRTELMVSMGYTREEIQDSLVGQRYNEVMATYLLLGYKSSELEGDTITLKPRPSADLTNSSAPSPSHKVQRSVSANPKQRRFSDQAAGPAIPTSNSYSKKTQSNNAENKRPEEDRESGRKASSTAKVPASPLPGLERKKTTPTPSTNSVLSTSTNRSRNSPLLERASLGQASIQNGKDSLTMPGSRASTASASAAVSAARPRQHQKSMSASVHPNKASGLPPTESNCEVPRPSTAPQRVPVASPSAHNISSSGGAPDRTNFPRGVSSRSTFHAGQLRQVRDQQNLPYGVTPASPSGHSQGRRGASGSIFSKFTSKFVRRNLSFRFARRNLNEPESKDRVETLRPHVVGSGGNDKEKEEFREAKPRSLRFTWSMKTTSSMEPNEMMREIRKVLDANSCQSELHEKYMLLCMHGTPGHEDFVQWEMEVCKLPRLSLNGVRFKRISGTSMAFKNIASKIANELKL

Calls of active or inactive are those of the source. No cut-off for these calls is given here.

With `CNc1cc(Oc2cc(C(=O)Nc3cc(N4CCN(C)CC4)cc(C(F)(F)F)c3)ccc2C)ncn1`, the inhibition (in general, the relative decrease from the control value, in per cent) at 1 µM in test [1] came to 0.5%. For the same molecule, the inhibition in test [2] amounted to 21.5%.

`CCN1CCN(Cc2ccc(NC(=O)c3ccc(C)c(Oc4ccnc5[nH]ccc45)c3)cc2C(F)(F)F)CC1`: the inhibition was 0.8% in test [3], 12% in test [4], 13.7% in test [5] and -1.1% in test [6]. In addition, the inhibition entry in test [7] was “inactive”.
